The species named for one test is Mus musculus. The test is described as follows: Inhibitory potency was evaluated using electrically induced smooth muscle contractions of mouse vas deferens (MVD). It is filed as functional, organism-based.
The species entered for another test is Cavia porcellus. The test is described as follows: Inhibitory potency was evaluated using strips of guinea pig ileum (GPI) longitudinal muscle-myenteric plexus. It is filed as functional, organism-based.

Consider `CC1(C)SSC(C)(C)[C@@H](NC(=O)[C@@H](N)Cc2ccc(O)cc2)C(=O)NCC(=O)N[C@@H](Cc2ccc(F)cc2)C(=O)N[C@H]1C(=O)O`, for which the concentration for half-maximal inhibition (IC50) came out at 0.84 nM in the test listed under Mus musculus and 5030 nM in the test filed under Cavia porcellus.
Turning to `CC1(C)SSC(C)(C)[C@@H](NC(=O)[C@@H](N)Cc2ccc(O)cc2)C(=O)NCC(=O)N[C@@H](Cc2ccc(I)cc2)C(=O)N[C@H]1C(=O)O`, the IC50 is 2.65 nM in the test filed under Mus musculus and 46100 nM in the test listed under Cavia porcellus.
For `CC1(C)SSC(C)(C)[C@@H](NC(=O)[C@@H](N)Cc2ccc(O)cc2)C(=O)NCC(=O)N[C@@H](Cc2ccc(Br)cc2)C(=O)N[C@H]1C(=O)O`, the IC50 in the test filed under Mus musculus was determined as 1.5 nM; in the test listed under Cavia porcellus, 13400 nM.
Consider `CC1(C)SSC(C)(C)[C@@H](NC(=O)[C@@H](N)Cc2ccc(O)cc2)C(=O)NCC(=O)N[C@@H](Cc2ccc(Cl)cc2)C(=O)N[C@H]1C(=O)O`, for which the IC50 was 0.89 nM in the test listed under Mus musculus and 4830 nM in the test listed under Cavia porcellus.

What is called IC50 is the concentration that gives 50% inhibition. Lower therefore signals higher potency.

The record behind these values is ChEMBL document CHEMBL1124942, “[D-Pen2,D-Pen5]enkephalin analogues with increased affinity and selectivity for delta opioid receptors” (J Med Chem, 1990).
